Results from PMC10831071, “Reaction hijacking inhibition of Plasmodium falciparum asparagine tRNA synthetase” (Nature Communications, 2024).
Several values for one entry are separate records, joined by “and”; a condition that tells them apart may be missing. Identical values can stand only once. Like-named read-outs stand apart in the source and are kept apart here.

Columns and labels:
P. falciparum (3D7) = assay: Activity against P. falciparum 3D7 cultures, 72 h (PfLDH growth inhibition / flow cytometry); format: cell-based, Plasmodium falciparum
Description: Antimalarial activity against P. falciparum 3D7 was tested by TCGLS, Kolkata, India, using the lactate dehydrogenase (PfLDH) growth inhibition assay. […] Plates were shaken to ensure mixing and were placed in the dark at 21 °C for 20 min. […] P. falciparum strain (3D7) was obtained from BEI Resources.
Viability was assessed in the second cycle by flow cytometry, following labeling with 2 μM Syto-61 (Thermo Fisher Scientific)[48],[49]. Viability represents the parasitemia normalized to untreated and “kill” controls that were treated with 2 μM dihydroartemisinin (DHA; Sigma-Aldrich) for 48–72 h. For drug pulse assays, tightly synchronized Cam3.II-rev[50] parasites (1–1.5% parasitemia, 0.2% final hematocrit) were added to the plates and incubated for 6 h. Drugs were removed and the parasitemia assessed in the trophozoite stage of the next cycle.

[1] = system: P. falciparum Dd2-B2 clone; assay: microbe, parasite or virus in culture; format: cell-based, Plasmodium falciparum
Text: Wells were monitored daily by smear during the first 7 days to ensure parasite clearance, during which media was changed daily. […] Whole-genome sequencing analysis employed MiSeq data from libraries of 2 × 300 bp paired end reads.

[2] = system: DSM265-selected recrudescent Dd2-B2 cultures (G7, F3); assay: Sensitivity of DSM265-selected bulk recrudescent cultures; format: cell-based, Plasmodium falciparum; details: for IC50: Plasmodium falciparum
PfAsnRS = PfAsnRS (Plasmodium falciparum, UniProt O96198); assay: biochemical; details: for ATP consumption: PfAsnRS, normalised to 1 (Fig 3C)
HsAsnRS = target: T1, HsAsnRS (Homo sapiens, UniProt O43776); assay: ATP consumption assay (Kinase-Glo), HsAsnRS; format: biochemical; details: for ATP consumption: HsAsnRS, normalised to 1 (Fig 3C)
T1 construct: HsAsnRS (residues M1–P548) and CDHsAsnRS (residues A98–P548); His6 (N, cleaved yes); made in house; host or cells: E. coli BL21 (DE3), pET11a
T1 sequence (O43776 1-548): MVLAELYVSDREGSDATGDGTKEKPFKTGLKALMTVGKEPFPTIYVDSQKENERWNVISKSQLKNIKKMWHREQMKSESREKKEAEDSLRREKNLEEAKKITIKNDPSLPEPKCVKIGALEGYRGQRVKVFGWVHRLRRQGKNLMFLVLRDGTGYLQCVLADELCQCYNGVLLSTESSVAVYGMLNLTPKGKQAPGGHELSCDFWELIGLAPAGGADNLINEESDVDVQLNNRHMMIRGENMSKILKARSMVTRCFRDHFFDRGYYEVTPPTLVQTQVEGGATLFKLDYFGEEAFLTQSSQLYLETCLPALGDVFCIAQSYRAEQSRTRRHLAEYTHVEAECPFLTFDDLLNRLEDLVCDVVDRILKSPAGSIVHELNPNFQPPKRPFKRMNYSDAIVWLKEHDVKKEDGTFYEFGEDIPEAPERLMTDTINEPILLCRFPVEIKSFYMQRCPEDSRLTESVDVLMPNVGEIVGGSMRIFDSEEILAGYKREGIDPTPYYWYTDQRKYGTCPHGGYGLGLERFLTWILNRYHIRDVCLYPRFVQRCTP

[3] = Plasmodium falciparum, 3D7, 72 h, read-out: Pf3D7 IC50(72 h), 72 h, mean ± SD or duplicate values
[4] = Plasmodium falciparum, 3D7, 72 h, read-out: Pf3D7 IC50 (72h), individual biological repeats (source data of Table 1)
[5] = read-out: Pf3D7 IC50 (72h), individual biological repeats (source data of Table 1)
[6] = Plasmodium falciparum, 3D7, read-out: activity against 3D7 cultures, value of earlier manuscript version quoted by reviewer, peer review file

Chain of PfAsnRS (O96198 entry or part of it): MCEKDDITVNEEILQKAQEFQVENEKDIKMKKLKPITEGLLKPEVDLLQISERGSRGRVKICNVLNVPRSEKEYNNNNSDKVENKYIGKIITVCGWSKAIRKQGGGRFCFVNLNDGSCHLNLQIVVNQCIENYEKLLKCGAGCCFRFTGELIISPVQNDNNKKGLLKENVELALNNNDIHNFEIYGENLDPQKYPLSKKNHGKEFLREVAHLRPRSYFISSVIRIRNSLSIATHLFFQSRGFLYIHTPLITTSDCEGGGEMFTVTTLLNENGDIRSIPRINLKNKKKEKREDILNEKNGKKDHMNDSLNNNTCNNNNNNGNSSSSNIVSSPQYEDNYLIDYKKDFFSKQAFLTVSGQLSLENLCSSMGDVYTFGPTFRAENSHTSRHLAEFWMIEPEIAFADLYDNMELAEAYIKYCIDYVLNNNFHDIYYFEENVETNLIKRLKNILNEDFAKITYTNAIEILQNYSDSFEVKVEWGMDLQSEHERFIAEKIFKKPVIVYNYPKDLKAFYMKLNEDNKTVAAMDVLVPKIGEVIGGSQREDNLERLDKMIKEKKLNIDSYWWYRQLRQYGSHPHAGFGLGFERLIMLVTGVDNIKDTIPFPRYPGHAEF

## NS(=O)(=O)c1cccc(-c2ccc3c(=O)[nH]cnc3c2)c1 [OSM-LO-87]
P. falciparum (3D7); 3D7 cultures
  antimalarial potency (in words): no antimalarial potency
P. falciparum (3D7); [3]
  IC50: > 25 µM
P. falciparum (3D7); [4]
  IC50: > 25 µM
P. falciparum (3D7); [5]
  IC50: > 25 µM

## NS(=O)(=O)c1cccc(-c2cc3nc[nH]c(=O)c3s2)c1 [OSM-LO-88]
P. falciparum (3D7); [3]
  IC50: 18.7 ± 1.8 µM
P. falciparum (3D7); [4]
  IC50: 19.2 µM
P. falciparum (3D7); [5]
  IC50: 21.9 µM and 18.6 µM and 17.5 µM and 16.5 µM

## NS(=O)(=O)c1cccc(-c2cc3ncnc(N4CCN(Cc5ccc(F)cc5)CC4)c3s2)c1 [OSM-S-137]
P. falciparum (3D7); [3]
  IC50: 4.4 ± 3 µM
P. falciparum (3D7); [5]
  IC50: 2.65 µM and 1.2 µM and 6.07 µM and 7.69 µM

## CNS(=O)(=O)c1cccc(-c2cc3ncnc(N)c3s2)c1 [OSM-S-488]
P. falciparum (3D7); [4]
  IC50: 12.7 µM
P. falciparum (3D7); [5]
  IC50: 13.8 µM

## Cc1cc(Nc2ccc(S(F)(F)(F)(F)F)cc2)n2nc(C(C)(F)F)nc2n1 [DSM265]
[1]; Plasmodium falciparum, DD2, read-out: Mean IC50 + SEM (N)
  IC50: 0.0226 µM
[1]; reference selection at 5 × IC50 (58 nM), 2 × 10^5 parasites per well, 96 wells
  Minimum Inoculum for Resistance (MIR): 1.4 × 10^6 parasites
[1]; reference selection at 5 × IC50 (58 nM), 96-well plate
  recrudescent wells: 14 and 14/96
[2]; DSM265_F3 vs Dd2-B2 parent
  Fold Shift: 2.5
[2]; DSM265_G7 vs Dd2-B2 parent
  Fold Shift: 3.1
[2]; read-out: Mean IC50 + SEM (N), recrudescent culture DSM265_F3
  IC50: 0.0566 µM
[2]; read-out: Mean IC50 + SEM (N), recrudescent culture DSM265_G7
  IC50: 0.071 µM

## Nc1ncnc2cc(-c3cccc(OS(N)(=O)=O)c3)sc12 [OSM-LO-80]
P. falciparum (3D7); [3]
  IC50: 5.1 ± 3.2 µM
P. falciparum (3D7); [6]
  IC50: 2.1 µM
P. falciparum (3D7); [5]
  IC50: 1.72 µM and 1.7 µM and 8 µM and 8.04 µM and 8.28 µM and 7.95 µM and 2.49 µM and 2.41 µM
PfAsnRS
  IC50: > 100 µM
PfAsnRS; 0.1 μM OSM-LO-80, 0.1 µM
  ATP consumption: 0.9991
PfAsnRS; 1 μM OSM-LO-80, 1 µM
  ATP consumption: 0.918 and 0.9991
PfAsnRS; 3 μM OSM-LO-80, 3 µM
  ATP consumption: 0.8254 and 0.8439
PfAsnRS; 10 μM OSM-LO-80, 10 µM
  ATP consumption: 0.7121 and 0.7363
PfAsnRS; 30 μM OSM-LO-80, 30 µM
  ATP consumption: 0.597 and 0.5984
PfAsnRS; 100 μM OSM-LO-80, 100 µM
  ATP consumption: 0.5737 and 0.5517
HsAsnRS; 0.1 μM OSM-LO-80
  ATP consumption: 0.9993 and 0.9657 and 0.9905
HsAsnRS; 0.2 μM HsAsnRS, E. coli tRNA present, 37 °C, 1 h (Fig. 3C, D)
  IC50: > 100 µM
HsAsnRS; 1 μM OSM-LO-80
  ATP consumption: 1 and 0.9892 and 0.9767
HsAsnRS; 3 μM OSM-LO-80
  ATP consumption: 0.9847 and 1 and 0.9888
HsAsnRS; 10 μM OSM-LO-80
  ATP consumption: 1.009 and 0.9926 and 0.9928
HsAsnRS; 30 μM OSM-LO-80
  ATP consumption: 0.9786 and 0.9717 and 1
HsAsnRS; 100 μM OSM-LO-80
  ATP consumption: 0.9628 and 0.9785 and 0.9921

## Cc1ccc(S(N)(=O)=O)cc1-c1cc2ncnc(N)c2s1 [OSM-E-32]
P. falciparum (3D7); [4]
  IC50: 8.33 µM

## Nc1ncnc2cc(-c3cccc(COS(N)(=O)=O)c3)sc12 [OSM-LO-81]
P. falciparum (3D7); [3]
  IC50: 0.93 ± 0.24 µM
P. falciparum (3D7); [4]
  IC50: 1.1 µM
P. falciparum (3D7); [6]
  IC50: 0.9 µM
P. falciparum (3D7); [5]
  IC50: 1.33 µM and 0.74 µM and 0.761 µM and 0.909 µM and 0.753 µM
